Test results taken from patent US12441959B2, “Composition containing organic ammonium salt” (MIYOSHI OIL & FAT CO., LTD., priority 2019, dated 2025).

Experiment: Surface resistance measurement with high resistance meter
Format: physicochemical
Settings: 0.7 g (in terms of anhydride) applied
Protocol: Surface resistance measurements were performed on compound 1 that had not undergone emulsification adjustment and on glycerin and the emulsification composition that had already undergone emulsification adjustment. In the comparison of compound 1 that had not undergone emulsification adjustment and glycerin, 0.7 g (content in terms of anhydride) of each of the compound 1 and glycerin was applied to an artificial leather made of polyurethane, followed by using a high resistance meter (Stack TR-2 by Tokyo Electronics Co., Ltd.) to measure a surface resistance value. Further, in the comparison by the emulsified composition, 0.05 g of the emulsification compositions shown in Table 11 were each applied to an artificial leather made of polyurethane to measure a surface resistance value using a high resistance meter.
Further, 0.7 g (content in terms of anhydride) of sodium lactate was applied to an artificial leather made of polyurethane before drying the same to volatilize water. As the result, the coating surface was turned into a solid state whose surface resistance value, measured in a similar manner as above, turned out to be 2×10^8Ω; confirmed were a non-volatility of the compound 1 (lower than 1×10^8Ω) and an effect of liquidity at 25° C. (capability of evenly coating a coating object).

| Structure (SMILES) | surface resistance value (dried to volatilize water, solid state) | surface resistance value (not emulsified, liquid state at measurement) |
| --- | --- | --- |
| CC(O)C(=O)[O-].[Na+] (centres unmarked) [sodium lactate] | 2×10^8 Ω | – |
| OCC(O)CO [glycerin] | – | 5×10^8 Ω |
